# In ChEMBL document CHEMBL6074635, “Replacement of the essential nitro group by electrophilic warheads towards nitro-free antimycobacterial benzothiazinones” (Eur J Med Chem, 2024):
# Legend:
# [1] = system: Mycolicibacterium vaccae; test: Antimycobacterial activity against Mycobacterium vaccae JMRC:STI:10670 assessed as inhibition of bacterial growth incubated for 42 hrs by broth microdilution method; format: functional
# [2] = system: Mycolicibacterium smegmatis; test: Antimycobacterial activity against Mycobacterium smegmatis JMRC:STH:00056 assessed as inhibition of bacterial growth incubated for 42 hrs by broth microdilution method; format: functional
# [3] = system: Mycobacterium tuberculosis; test: Antimycobacterial activity against Mycobacterium tuberculosis H37Rv assessed as inhibition of bacterial growth incubated for 7 days by resazurin dye based two-fold dilution assay; format: functional; conditions: 168 h, time 7 day
# [4] = system: Mycobacterium tuberculosis; test: Antimycobacterial activity against Mycobacterium tuberculosis Erdman ATCC 35801 assessed as inhibition of bacterial growth incubated for 7 days by resazurin dye based two-fold dilution assay; format: functional; conditions: Erdman ATCC 35801, 168 h, time 7 day
# [5] = Cytotoxicity against human HeLa cells incubated for 72 hrs by cell-titer blue reagent assay; format: toxicity, cell-based
# [6] = Stability of compound in PBS at pH 7.4 assessed as half-life in presence of GSH incubated for 90 mins by UPLC-HRMS analysis; format: physicochemical; conditions: PBS with GSH
# [7] = Drug metabolism in BALB/cAnNCrl mouse assessed as HMC metabolite formation at 250 mg/kg,po measured after 24 hrs by UHPLC-HRMS analysis; format: ADME, organism-based; conditions: in vivo
# [8] = molecular target: T1, Decaprenylphosphoryl-beta-D-ribose oxidase (Mycobacterium tuberculosis (strain ATCC 25618 / H37Rv), UniProt P9WJF1); test: Reversible inhibition of recombinant Mycobacterium tuberculosis DprE1 extracted from Escherichia coli BL21(DE3) using FPR/GGPR as substrate incubated for 60 mins by resazurin dye based fluorescence plate reader analysis
# T1 sequence (P9WJF1 whole entry): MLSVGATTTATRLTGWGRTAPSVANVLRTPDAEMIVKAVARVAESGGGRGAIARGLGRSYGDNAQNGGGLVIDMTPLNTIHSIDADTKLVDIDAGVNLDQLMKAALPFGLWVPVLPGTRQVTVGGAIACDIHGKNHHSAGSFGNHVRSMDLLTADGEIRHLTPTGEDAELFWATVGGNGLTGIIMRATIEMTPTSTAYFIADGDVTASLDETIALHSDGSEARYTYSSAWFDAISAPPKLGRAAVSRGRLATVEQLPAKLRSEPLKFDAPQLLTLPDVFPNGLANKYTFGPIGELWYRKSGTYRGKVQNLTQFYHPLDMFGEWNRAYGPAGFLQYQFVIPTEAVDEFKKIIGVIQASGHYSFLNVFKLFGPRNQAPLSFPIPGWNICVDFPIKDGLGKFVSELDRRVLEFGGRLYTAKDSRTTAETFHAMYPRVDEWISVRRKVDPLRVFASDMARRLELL
# [9] = Stability of compound in PBS at pH 7.4 in presence of GSH incubated for 90 mins by UPLC-HRMS analysis; format: physicochemical; conditions: buffer, pH 7.4, 1.5 h
# [10] = molecular target: T1, Decaprenylphosphoryl-beta-D-ribose oxidase; test: Covalent inhibition of recombinant Mycobacterium tuberculosis DprE1 extracted from Escherichia coli BL21(DE3) using FPR/GGPR as substrate incubated for 60 mins by resazurin dye based fluorescence plate reader analysis
# [11] = molecular target: T1, Decaprenylphosphoryl-beta-D-ribose oxidase; test: Covalent inhibition of recombinant Mycobacterium tuberculosis DprE1 extracted from Escherichia coli BL21(DE3) assessed as inhibition constant using FPR/GGPR as substrate incubated for 60 mins by resazurin dye based fluorescence plate reader analysis
# [12] = Stability of compound in PBS at pH 7.4 assessed as compound remaining in presence of GSH incubated for 90 mins by UPLC-HRMS analysis; format: physicochemical; conditions: PBS with GSH, read-out: Stability
SMILES,MIC [1] [µM],MIC [2] [µM],MIC [3] [µM],MIC [4] [µM],CC50 at 72 h [5] [µM],half-life [6] [min],Drug metabolism [7],IC50 [8] [µM],Stability [9],IC50 [10] [µM],Ki [11] [µM],remaining at 1.5 h [12] [%]
C#CP(=O)(Nc1cc(C(F)(F)F)cc2c(=O)nc(N3CCC4(CC3)OC[C@H](C)O4)sc12)OCC (stereo partly specified),12,96.6,10.3,10.3,10.8,10.5,metabolite_notdetected,,,,,
C=C=CC(=O)Nc1cc(C(F)(F)F)cc2c(=O)nc(N3CCC4(CC3)OC[C@H](C)O4)sc12,107,107,,,,,,,,,,
C=CS(=O)(=O)Nc1cc(C(F)(F)F)cc2c(=O)nc(N3CCC4(CC3)OC[C@H](C)O4)sc12,1.6,25.4,45.2,44.9,,,,2.62,,,,
COC(=O)C(=O)Nc1cc(C(F)(F)F)cc2c(=O)nc(N3CCC4(CC3)OC[C@H](C)O4)sc12,51.3,103,,,> 50,,metabolite_notdetected,,Unstable,,,
CCOC(=O)C(=O)Nc1cc(C(F)(F)F)cc2c(=O)nc(N3CCC4(CC3)OC[C@H](C)O4)sc12,49.8,99.7,,,> 50,,metabolite_notdetected,,Unstable,,,
C=CC(=O)Nc1cc(C(F)(F)F)cc2c(=O)nc(N3CCC4(CC3)OC[C@H](C)O4)sc12,,110,3.9,3.6,,,,,,6.83,38.8,
C=C(F)C(=O)Nc1cc(C(F)(F)F)cc2c(=O)nc(N3CCC4(CC3)OC[C@H](C)O4)sc12,13.2,106,13,15.5,,,,1.13,,,,
C[C@H]1COC2(CCN(c3nc(=O)c4cc(C(F)(F)F)cc(NC(=O)C(C)(C)Br)c4s3)CC2)O1,45.4,90.8,,,> 50,,metabolite_notdetected,,,81.4,715,100
C[C@H]1COC2(CCN(c3nc(=O)c4cc(C(F)(F)F)cc(N5CCC5=O)c4s3)CC2)O1,54.9,110,,,> 50,,,,,,,100
C=C(C)C(=O)Nc1cc(C(F)(F)F)cc2c(=O)nc(N3CCC4(CC3)OC[C@H](C)O4)sc12,26.6,106,,,,,,,,33.9,214,
CC(Cl)C(=O)Nc1cc(C(F)(F)F)cc2c(=O)nc(N3CCC4(CC3)OC[C@H](C)O4)sc12 (stereo partly specified),102,102,,,> 50,,metabolite_notdetected,,,,,100
C=CP(=O)(Nc1cc(C(F)(F)F)cc2c(=O)nc(N3CCC4(CC3)OC[C@H](C)O4)sc12)OCC (stereo partly specified),6,24.1,4.5,5,> 50,,metabolite_notdetected,19.5,,,,100
C[C@H]1COC2(CCN(c3nc(=O)c4cc(C(F)(F)F)cc([N+](=O)[O-])c4s3)CC2)O1 [BTZ-043],0.004,0.058,0.002,0.002,,,,,,,,
